US9776990B2, “Isoindolone derivatives” (AbbVie Inc., priority 2012, dated 2017)
pKi: −log10 of the molar value.

Columns and labels:
BRD4 (BDI_K57-E168) = BRD4 (BDI_K57-E168) (Homo sapiens (Human), UniProt O60885); assay: TR-FRET bromodomain binding assay, BRD4 first bromodomain; details: His-tagged BD1, 100 nM Alexa647 probe
Experimental: (§1) A time-resolved fluorescence resonance energy transfer (TR-FRET) assay was used to determine the affinities of compounds of the Examples listed in Table 1 for each bromodomain of BRD4. His-tagged first (BD1: amino acids K57-E168) and second (BD2: amino acids E352-E168) bromodomains of BRD4 were expressed and purified. An Alexa647-labeled BET-inhibitor was used as the fluorescent probe in the assay.
(§2) Compound dilution series were prepared in DMSO via a 3-fold serial dilution from 2.5 mM to 42 nM. Compounds were then diluted 6:100 in assay buffer (20 mM Sodium Phosphate, pH 6.0, 50 mM NaCl, 1 mM EDTA, 0.01% Triton X-100, 1 mM DTT) to yield 3× working solutions. Six microliters (μL) of the working solution was then transferred to white, low-volume assay plates (Costar #3673). A 1.5× assay mixture containing His-tagged bromodomain, Europium-conjugated anti-His antibody (Invitrogen PV5596) and the Alexa-647-conjugated probe molecule was also prepared. Twelve μL of this solution were added to the assay plate to reach a final volume of 18 μL. The final concentration of 1× assay buffer contains 2% DMSO, 50 μM−0.85 nM compound, 8 nM bromodomain, 1 nM antibody and 100 or 30 nM probe (for BDI or BDII, respectively). After a one-hour incubation at room temperature, TR-FRET ratios were determined using an Envision multilabel plate reader (Ex 340, Em 495/520).
(§3) TR-FRET data were normalized to the means of 24 no-compound controls (“high”) and 8 controls containing 1 μM un-labeled probe (“low”). Percent inhibition was plotted as a function of compound concentration and the data were fit with the 4 parameter logistic equation to obtain IC50s Inhibition constants (Ki) were calculated from the IC50s, probe Kd and probe concentration. Typical Z′ values were between 0.65 and 0.75. The minimum significant ratio was determined to evaluate assay reproducibility (Eastwood et al., (2006) J Biomol Screen, 11: 253-261). The MSR was determined to be 2.03 for BDI and 1.93 for BDII, and a moving MSR (last six run MSR overtime) for both BDI and BDII was typically <3.

BRD4 (BDII_E352-M457) = BRD4 (BDII_E352-M457) (Homo sapiens (Human), UniProt O60885); assay: TR-FRET bromodomain binding assay, BRD4 second bromodomain; details: His-tagged BD2, 30 nM Alexa647 probe
Experimental: as §1, §2, §3

pKi (BRD4 (BDI_K57-E168))	pKi (BRD4 (BDII_E352-M457))	Compound
5.04	5.05	Cc1[nH]c(-c2ccccc2COc2cccc(C(F)(F)F)c2)c2c1C(=O)CCC2 [Example 23, 3-methyl-1-(2-{[3-(trifluoromethyl)phenoxy]methyl}phenyl)-2,5,6,7-tetrahydro-4H-isoindol-4-one]
5.90	5.32	Cc1[nH]c(-c2ccccc2OCC2CCCC2)c2c1C(=O)CCC2 [Example 30, 1-[2-(cyclopentylmethoxy)phenyl]-3-methyl-2,5,6,7-tetrahydro-4H-isoindol-4-one]
5.73	5.23	Cc1[nH]c(-c2cccc3[nH]cnc23)c2c1C(=O)CCC2 [Example 21, 1-(1H-benzimidazol-4-yl)-3-methyl-2,5,6,7-tetrahydro-4H-isoindol-4-one]
6.03	6.29	Cc1[nH]c(-c2ccc3c(c2)OCO3)c2c1C(=O)CC(C)(C)C2 [Example 58, 1-(1,3-benzodioxol-5-yl)-3,6,6-trimethyl-2,5,6,7-tetrahydro-4H-isoindol-4-one]
5.57	5.00	COc1ccccc1-c1[nH]c(C)c2c1CCCC2=O [Example 6, 1-(2-methoxyphenyl)-3-methyl-2,5,6,7-tetrahydro-4H-isoindol-4-one]
5.92	5.64	Cc1[nH]c(-c2ccccc2COc2ccccc2)c2c1C(=O)CCC2 [Example 24, 3-methyl-1-[2-(phenoxymethyl)phenyl]-2,5,6,7-tetrahydro-4H-isoindol-4-one]
5.26	4.76	Cc1cc(C)cc(-c2[nH]c(C)c3c2CCCC3=O)c1 [Example 17, 1-(3,5-dimethylphenyl)-3-methyl-2,5,6,7-tetrahydro-4H-isoindol-4-one]
5.66	5.77	Cc1[nH]c(-c2ccccc2N2CCOCC2)c2c1C(=O)CC(C)(C)C2 [Example 61, 3,6,6-trimethyl-1-[2-(morpholin-4-yl)phenyl]-2,5,6,7-tetrahydro-4H-isoindol-4-one]
6.79	6.03	Cc1[nH]c(-c2cc(NC(=O)c3ccc[nH]3)ccc2Oc2ccc(F)cc2F)c2c1C(=O)CCC2 [Example 51, N-[4-(2,4-difluorophenoxy)-3-(3-methyl-4-oxo-4,5,6,7-tetrahydro-2H-isoindol-1-yl)phenyl]-1H-pyrrole-2-carboxamide]
5.47	5.57	Cc1ccc(C)c(-c2[nH]c(C)c3c2CC(C)(C)CC3=O)c1 [Example 60, 1-(2,5-dimethylphenyl)-3,6,6-trimethyl-2,5,6,7-tetrahydro-4H-isoindol-4-one]
5.60	4.80	Cc1ccc(-c2[nH]c(C)c3c2CCCC3=O)cc1 [Example 4, 3-methyl-1-(4-methylphenyl)-2,5,6,7-tetrahydro-4H-isoindol-4-one]
5.04	4.96	Cc1[nH]c(-c2ccccc2OCc2cccc3cccnc23)c2c1C(=O)CCC2 [Example 35, 3-methyl-1-[2-(quinolin-8-ylmethoxy)phenyl]-2,5,6,7-tetrahydro-4H-isoindol-4-one]
5.37	4.82	Cc1ccccc1OCc1ccccc1-c1[nH]c(C)c2c1CCCC2=O [Example 25, 3-methyl-1-{2-[(2-methylphenoxy)methyl]phenyl}-2,5,6,7-tetrahydro-4H-isoindol-4-one]
5.14	4.65	Cc1[nH]c(-c2ccc(Cl)cc2)c2c1C(=O)CCC2 [Example 13, 1-(4-chlorophenyl)-3-methyl-2,5,6,7-tetrahydro-4H-isoindol-4-one]
7.47	6.34	Cc1[nH]c(-c2cc(S(C)(=O)=O)ccc2OCC2CC2)c2c1C(=O)CCC2 [Example 73, 1-[2-(cyclopropylmethoxy)-5-(methylsulfonyl)phenyl]-3-methyl-2,5,6,7-tetrahydro-4H-isoindol-4-one]
5.27	4.82	Cc1[nH]c(-c2ccccc2O)c2c1C(=O)CCC2 [Example 28, 1-(2-hydroxyphenyl)-3-methyl-2,5,6,7-tetrahydro-4H-isoindol-4-one]
5.61	5.09	Cc1[nH]c(-c2cccc3cc[nH]c23)c2c1C(=O)CCC2 [Example 22, 1-(1H-indol-7-yl)-3-methyl-2,5,6,7-tetrahydro-4H-isoindol-4-one]

pKi (BRD4 (BDI_K57-E168))	pKi (BRD4 (BDII_E352-M457))	Compound
5.44	4.65	3-methyl-6-(2-methylpropyl)-1-(2-phenoxyphenyl)-2,5,6,7-tetrahydro-4H-isoindol-4-one [Example 68]
5.04	4.65	Cc1[nH]c(-c2cccc(OCc3ccccc3)c2)c2c1C(=O)CCC2 [Example 14, 1-[3-(benzyloxy)phenyl]-3-methyl-2,5,6,7-tetrahydro-4H-isoindol-4-one]
5.31	5.31	Cc1[nH]c(-c2ccccc2OCc2ccc3[nH]ncc3c2)c2c1C(=O)CCC2 [Example 38, 1-[2-(1H-indazol-5-ylmethoxy)phenyl]-3-methyl-2,5,6,7-tetrahydro-4H-isoindol-4-one]
5.54	4.98	Cc1ccc(-c2[nH]c(C)c3c2CCCC3=O)cc1C [Example 12, 1-(3,4-dimethylphenyl)-3-methyl-2,5,6,7-tetrahydro-4H-isoindol-4-one]
5.97	4.65	Cc1[nH]c(-c2cc(C(=O)Nc3nccs3)ccc2Oc2ccccc2)c2c1C(=O)CCC2 [Example 57, 3-(3-methyl-4-oxo-4,5,6,7-tetrahydro-2H-isoindol-1-yl)-4-phenoxy-N-(1,3-thiazol-2-yl)benzamide]
6.03	5.44	COC(=O)c1ccc(Oc2ccccc2)c(-c2[nH]c(C)c3c2CCCC3=O)c1 [Example 53, methyl 3-(3-methyl-4-oxo-4,5,6,7-tetrahydro-2H-isoindol-1-yl)-4-phenoxybenzoate]
5.56	5.18	Cc1[nH]c(-c2ccccc2-c2ccco2)c2c1C(=O)CCC2 [Example 27, 1-[2-(furan-2-yl)phenyl]-3-methyl-2,5,6,7-tetrahydro-4H-isoindol-4-one]
5.14	4.65	Cc1[nH]c(-c2cc(NS(C)(=O)=O)ccc2Oc2ccccc2)c2c1C(=O)CC(c1ccccc1)C2 (centres unmarked) [Example 72, N-[3-(3-methyl-4-oxo-6-phenyl-4,5,6,7-tetrahydro-2H-isoindol-1-yl)-4-phenoxyphenyl]methanesulfonamide]
7.24	7.16	Cc1[nH]c(-c2cc(N)ccc2Oc2ccccc2)c2c1C(=O)CC(C)C2 (centres unmarked) [Example 66, 1-(5-amino-2-phenoxyphenyl)-3,6-dimethyl-2,5,6,7-tetrahydro-4H-isoindol-4-one]
5.05	5.01	Cc1[nH]c(-c2ccccc2OCc2cccc3ccsc23)c2c1C(=O)CCC2 [Example 36, 1-[2-(1-benzothiophen-7-ylmethoxy)phenyl]-3-methyl-2,5,6,7-tetrahydro-4H-isoindol-4-one]
5.75	5.35	COc1cccc(-c2[nH]c(C)c3c2CCCC3=O)c1 [Example 20, 1-(3-methoxyphenyl)-3-methyl-2,5,6,7-tetrahydro-4H-isoindol-4-one]
5.49	5.60	Cc1[nH]c(-c2ccccc2)c2c1C(=O)CC(C)(C)C2 [Example 59, 3,6,6-trimethyl-1-phenyl-2,5,6,7-tetrahydro-4H-isoindol-4-one]
7.85	7.28	Cc1[nH]c(-c2cc(NS(C)(=O)=O)ccc2Oc2ccc(F)cc2F)c2c1C(=O)CCC2 [Example 46, N-[4-(2,4-difluorophenoxy)-3-(3-methyl-4-oxo-4,5,6,7-tetrahydro-2H-isoindol-1-yl)phenyl]methanesulfonamide]
5.42	5.07	Cc1[nH]c(-c2ccc3c(c2)OCO3)c2c1C(=O)CCC2 [Example 16, 1-(1,3-benzodioxol-5-yl)-3-methyl-2,5,6,7-tetrahydro-4H-isoindol-4-one]
5.82	5.76	Cc1[nH]c(-c2ccccc2OCc2ccccc2)c2c1C(=O)CC(C)(C)C2 [Example 62, 1-[2-(benzyloxy)phenyl]-3,6,6-trimethyl-2,5,6,7-tetrahydro-4H-isoindol-4-one]
5.43	4.82	Cc1[nH]c(-c2ccccc2N)c2c1C(=O)CCC2 [Example 3, 1-(2-aminophenyl)-3-methyl-2,5,6,7-tetrahydro-4H-isoindol-4-one]
5.73	5.26	COc1ccc(-c2[nH]c(C)c3c2CCCC3=O)cc1 [Example 11, 1-(4-methoxyphenyl)-3-methyl-2,5,6,7-tetrahydro-4H-isoindol-4-one]
